In data set [1] the test system is tibialis anterior (TA) muscle. Put plainly: Muscle histology (H&E), myofibrillar cross sectional area of tibialis anterior. Particulars: C26+5FU+Quer vs C26+5FU. Format: in vivo, CD2F1 mice. On the procedure:
Skeletal muscle histology was assessed via hematoxylin and eosin (H&E) staining on tibialis anterior (TA) muscle cryosections. The TA muscle was dissected, snap-frozen in liquid nitrogen with Optimum Cutting Temperature (OCT) embedding medium placed on the most distal portion of the TA and stored in −80° C. Tissue was acclimated to the cryostat temperature (−24° C.) prior to collection of transverse sections ([…]) on Fisherbrand Superfrost Plus Microscope Slides. TA tissue slides were then stored at −80° C. until staining. Slides were fixed in ice-cold acetone and H&E staining was completed as previously described. […] Cancer Biol Ther, 2022. 23(1); and VanderVeen, B. N., et al., 5-Fluorouracil disrupts skeletal muscle immune cells and impairs skeletal muscle repair and remodeling. J Appl Physiol (1985), 2022. 133(4): p. 834-849. Images of H&E stains were taken at 20× and 40× magnification using a Keyence BZX800 microscope. Muscle cross sectional area (mCSA) was measured using ImageJ by measuring the circumference of 500-700 myofibers/mouse (n=3-5/group).

Data set [2] concerns succinate dehydrogenase (SDH) activity. Put plainly: Myofiber metabolic phenotype, succinate dehydrogenase (SDH) staining of TA cryosections. Format: in vivo, CD2F1 mice. Particulars: C26+5FU+Quer vs C26+5FU. On the procedure: To assess skeletal muscle myofiber metabolic phenotype succinate dehydrogenase (SDH) activity was measured. SDH is an enzyme bound to the inner mitochondrial membrane and SDH activity is higher in type 1 fibers. See, Zogby, A. M., et al., Skeletal muscle fiber-type specific succinate dehydrogenase activity in cerebral palsy. Muscle Nerve, 2017. 55(1): p. 122-124. TA tissue cryosections were taken out of the -80° C. and air dried on the laboratory bench and then incubated in an SDH staining solution containing 0.5 mg/ml nitroblue tetrazolium and (Sigma, Cat #: N5514) and 50 mM sodium succinate (Sigma, Cat #: S2378) in PBS for 30 min at 37° C. See, […]., et al., Eccentric contraction-induced myofiber growth in tumor-bearing mice. J Appl Physiol (1985), 2016. 120(1): p. 29-37. Slides were then washed in distilled water 3×1 min before mounting with warmed glycerol mounting media and cover slipped. Images of SDH stains were taken at 4×, 20×, and 40× using a Keyence BZX800 microscope. […] Images were inverted thus higher values corresponded with higher SDH activity.

Another data set relates to P62, LC3B, Parkin, BNIP3. Put plainly: Western blot of rectus femoris, autophagy and mitophagy proteins. Type of data set: in vivo, CD2F1 mice. The conditions noted are these: C26+5FU+Quer vs C26+5FU. On the procedure: Protein isolation and western blotting was completed similar to what has been previously described. See, Sougiannis, A. T., et al., Impact of weight loss and partial weight regain on immune cell and inflammatory markers in adipose tissue in male mice. J Appl Physiol (1985), 2020. 129(4): p. 909-919. The rectus femoris (RF) was teased from the other quadriceps muscles, cut in half (proximal/distal), snap frozen in liquid nitrogen, and stored at −80° C. The distal RF was homogenized in Mueller Buffer (50 mM Hepes, 0.1% Triton-x, 4 mM EGTA, 10 mM EDTA, 15 mM Na4P207, 100 mM β-glycerophosphate, 25 mM NaF, and 5 mM NaVO4, with protease inhibitor cocktail) using a bead homogenizer at 4° C. Samples were centrifuged and the supernatant was collected and diluted with a diluent buffer (50% Glycerol, 50 mM Na4P2O7, 2.5 mM EGTA, and 1 mM β-mercaptoethanol with protease inhibitor cocktail). […] Between 10-50 μg of muscle protein homogenate was separated via SDS-PAGE and transferred to a PVDF membrane. Membranes were stained with Ponceau Red to confirm even loading and transfer efficiency. Membranes were then washed with tris buffered saline with 0.1% Tween (TBST) before blocking for 1 h at room temp with 5% milk TBST. Membranes were then incubated in primary anti-body (Table 1, see FIG. 8) overnight at 4° C. under gentle agitation. Membranes were then washed 3×5 min and incubated with the appropriate (anti-mouse or rabbit) HRP-linked secondary in 5% milk TBST for 1 h at room temperature. After a final 3×5 min wash membranes were incubated in chemiluminescent HRP substrate before visualization with a Syngene G:box. Images were then scanned, and relative protein expression was determined with ImageJ. Investigator was blinded to sample loading scheme and images were cropped after analysis for representation. All samples (full Ns) were run together for each protein. Dotted lines indicate where gels were cropped.
(In general: In western blotting, separated proteins are transferred to a membrane and probed.)

For the next data set, the system named is PPARG, PPARGCA1. Put plainly: RT-PCR of rectus femoris, mitochondrial biogenesis genes. Particulars: C26+5FU+Quer vs C26+5FU. Type of data set: in vivo, CD2F1 mice.
The test system of a further data set is IL-6. In words: Plasma interleukin-6 ELISA. Particulars: C26+5FU+Quer vs C26+5FU. Format: in vivo, CD2F1 mice. The procedure: Blood was collected retro orbitally prior to euthanasia while the mice were anesthetized. Whole blood was collected and put in an EDTA-coated tubes and store on ice prior to centrifugation (3,000 g at 4° C. for 10 min) for plasma collection. A commercially available IL-6 (SEQ ID NO: 9) enzyme-linked immunosorbent assay (ELISA) kit was obtained from BioLegend (San Diego, CA, USA). Briefly, a Costar clear 96-well plate (Corning, NY, USA) was coated with IL-6 (SEQ ID NO: 9) capture antibody and allowed to incubate overnight. The plate was then blocked with assay diluent buffer, and IL-6 (SEQ ID NO: 9) standards and plasma samples were added to the plate. Wells were then washed and detection antibody was incubated in each well for 1 h. The wells were again washed and then incubated with avidin horseradish peroxidase reagent. After several washes, 3,3′,5,5′-tetramethylbenzidine substrate was added, and the reaction was developed for 20 min. The reaction was stopped with sulfuric acid, and absorbance was measured.
Background: ELISA stands for enzyme-linked immunosorbent assay.

In data set [3] the test system is ApcMin/+ model of intestinal cancer. Particulars: 25 mg/kg of quercetin; cited from earlier work.
In another data set the test system is C26 model of cachexia. The conditions noted are these: Quercetin 35 mg/kg; cited from earlier work.
A further data set relates to CD2F1 mice. Particulars: mouse, in vivo; cited from earlier work.

Experimental for PPARG, PPARGCA1: RNA from the proximal portion of the RF was isolated as previously described. […] Briefly, RNA was extracted from the RF using the […] procedure (Life Technologies, Gibco-BRL, Carlsbad, CA). RNA sample quality and quantities were verified using a Nanodrop One Microvolume UV-Vis Spectrophotometer (Thermo Fisher Scientific, Waltham, MA). […] Quantitative RT-PCR analysis was carried out as per the manufacturer's instructions (Applied Biosystems) using Taq-Man Gene Expression Assays.

On to `O=c1c(O)c(-c2ccc(O)c(O)c2)oc2cc(O)cc(O)c12` [quercetin, 3,4,5,7-pentahydroxylflavone], for which the “myofibrillar fiber size distribution” value in data set [1] is “rightward shift”. In addition, in data set [1] (H&E), the “increase in TA mean CSA” value is listed as 32.0%. Further, in data set [2], the “CSA across glycolytic, mixed, and oxidative fibers according to SDH activity” value is reported as “increase”; the “mCSA and SDH across the spectrum of fibers analyzed” value is “increased”. For the same compound, in the data set on P62, LC3B, Parkin, BNIP3 (no observed difference, p=0.2), the “change in LC3b expression” value is listed as −33.4%. Further, the “change in P62 expression” value in the data set on P62, LC3B, Parkin, BNIP3 (no observed difference, p=0.20) is −33.4%. The “change in BNIP3 expression” value with P62, LC3B, Parkin, BNIP3 (significant increase, p=0.024) is given as 555%. Also, the “change in gene expression of PPARG” value in the data set with PPARG, PPARGCA1 (p=0.04) is −64.0%. For the same compound, in the data set on PPARG, PPARGCA1 (without changes, p=0.36), the “change in PPARGCA1 gene expression” value is on record as 10.3%. The “plasma IL-6” value in the data set on IL-6 was “did not appear that quercetin decreased”. Also, the “muscle mass and strength” value in data set [3] is “preserved muscle mass and strength”. The muscle mass loss entry in the data set on C26 model of cachexia is given as “protected against muscle mass loss”. Further, in the data set on CD2F1 mice, the sub-chronic toxicity result was “no deleterious effects or toxicities”.

These data come from US20260191818A1 (University of South Carolina, priority 2022, published 2026).
